Experimental data from PMC9977398, “Next-generation membrane-active glycopeptide antibiotics that also inhibit bacterial cell division” (Chemical Science, 2023).

How the values were obtained:
B. subtilis = test: BacLight assay (pore formation assay); assay type: cell-based; details: treatment at PEC
Source text: To examine if the compounds form pores on the membrane, a mixture of the fluorescent dyes SYTO 9 and PI was used. While SYTO 9 penetrates both intact and permeabilized cells staining them green, PI is unable to cross the intact membrane and stains only permeabilized or dead cells red. Membrane-disrupting antibiotics such as nisin are known to form pores in the membrane is stained by both SYTO 9 and PI (Fig. 4D). […] Around 20% of the cells visualized post-treatment with both compounds were stained by PI and therefore permeabilized. […]
and the untreated control were carefully removed from the well, washed with 0.9 % saline, and placed on glass slides. The biofilms were then stained with 10 μL of SYTO9 (60μM) and imaged using a Zeiss 510 Meta confocal laser-scanning microscope. The orthogonal projections of the images were processed with LSM 5 Image examiner. […]
Overnight cultures of B. subtilis 168 were grown in 50 mL flasks in 5 mL BMM media. […] The MIC was determined as the lowest concentration at which no visible bacterial OD […]
Overnight cultures of B. subtilis 168 were grown in 50 mL flasks with 10 mL of media. […] The O.D. of the solutions are recorded every 30 minutes. […]
resuspended in prewarmed BMM media. […] The fluorescence in the GFP and Texas red channels was then observed under the microscope. […]

VRE = test: MIC against VRE (strains taken together); assay type: cell-based; details: ratio of MICs
Description: The increase in the carbon content of substituted moieties from six (1) to seven (2 and 3) to ten (5) to twelve (4), increased activity.
VanQAmC14 (10): Yield 65%; HPLC purity 96%; 1H-NMR (400 MHz, DMSO-d6) δ/ppm:
Test compound was assayed in a micro -dilution broth format as per the CLSI guideline. The bacterial freeze dried stock samples were stored at -80 °C. About 5 μL of these stocks were added to 3 mL of the respective broth and the culture was grown for 6 h at 37°C with prior to the experiments. This 6 h grown culture was diluted to give effective cell concentration of 10 5 CFU/mL which was then used for determining MIC. Compounds were serially diluted 2 -fold, in sterile millipore water and 50 μL of these serial dilutions were added to the wells of 96 well plate followed by the addition of about 150 μL of bacterial solution. The plates were then incubated for 18-24 h at 37 °C. The O.D. value at 600 nm was recorded using TECAN (Infinite series, M200 pro) Plate Reade r. Each concentration had triplicate values and the whole experiment was done at least twice and the MIC value was determined by taking the average of triplicate O. D. values for each concentration and plotting it against concentration. The data was then subjected to sigmoidal fitting. From the curve the MIC value was determined, as the point where the O. D. was similar to that of control having no bacteria.

| SMILES | pore formation (co-staining SYTO 9 and PI) (B. subtilis) | fold enhancement in activity as compared to vancomycin against VRE (VRE) |
| --- | --- | --- |
| CCCCCCCCCCNC(=O)C[N+](C)(C)CCCNC(=O)C1NC(=O)C2NC(=O)C(NC(=O)C3NC(=O)C(CC(N)=O)NC(=O)C(NC(=O)C(CC(C)C)NC)C(O)c4ccc(c(Cl)c4)Oc4cc3cc(c4OC3OC(CO)C(O)C(O)C3OC3CC(C)(N)C(O)C(C)O3)Oc3ccc(cc3Cl)C2O)c2ccc(O)c(c2)-c2c(O)cc(O)cc21 (stereo not shown) [VanQAmC10 (8)] | did not co-stain cells with both the dyes | ~160 fold |
| CNC(CC(C)C)C(=O)NC1C(=O)NC(CC(N)=O)C(=O)NC2C(=O)NC3C(=O)NC(C(=O)NC(C(=O)NCCC[N+](C)(C)Cc4ccc(-c5ccccc5)cc4)c4cc(O)cc(O)c4-c4cc3ccc4O)C(O)c3ccc(c(Cl)c3)Oc3cc2cc(c3OC2OC(CO)C(O)C(O)C2OC2CC(C)(N)C(O)C(C)O2)Oc2ccc(cc2Cl)C1O (stereo not shown) [VanQbiph (4)] | did not co-stain cells with both the dyes | 40- to 60 fold |
